Laboratory results taken from ChEMBL document CHEMBL1158622, “Discovery of a series of indan carboxylic acid glycogen phosphorylase inhibitors” (Bioorg Med Chem Lett, 2010).
Values joined by “and” are separate entries in the source; they are usually repeats but may differ in a detail not shown here. Equal entries are not always repeated.

What was measured:
[1] = (§1) Oral bioavailability in rat at 5 mg/kg oral & 2 mg/kg iv dose; format: ADME, organism-based; conditions: in vivo
[2] = target: T1, Glycogen phosphorylase, liver form (Homo sapiens, UniProt P06737); assay: Inhibition of human recombinant liver glycogen phosphorylase by multienzyme-coupled reaction
T1 sequence (P06737 whole entry): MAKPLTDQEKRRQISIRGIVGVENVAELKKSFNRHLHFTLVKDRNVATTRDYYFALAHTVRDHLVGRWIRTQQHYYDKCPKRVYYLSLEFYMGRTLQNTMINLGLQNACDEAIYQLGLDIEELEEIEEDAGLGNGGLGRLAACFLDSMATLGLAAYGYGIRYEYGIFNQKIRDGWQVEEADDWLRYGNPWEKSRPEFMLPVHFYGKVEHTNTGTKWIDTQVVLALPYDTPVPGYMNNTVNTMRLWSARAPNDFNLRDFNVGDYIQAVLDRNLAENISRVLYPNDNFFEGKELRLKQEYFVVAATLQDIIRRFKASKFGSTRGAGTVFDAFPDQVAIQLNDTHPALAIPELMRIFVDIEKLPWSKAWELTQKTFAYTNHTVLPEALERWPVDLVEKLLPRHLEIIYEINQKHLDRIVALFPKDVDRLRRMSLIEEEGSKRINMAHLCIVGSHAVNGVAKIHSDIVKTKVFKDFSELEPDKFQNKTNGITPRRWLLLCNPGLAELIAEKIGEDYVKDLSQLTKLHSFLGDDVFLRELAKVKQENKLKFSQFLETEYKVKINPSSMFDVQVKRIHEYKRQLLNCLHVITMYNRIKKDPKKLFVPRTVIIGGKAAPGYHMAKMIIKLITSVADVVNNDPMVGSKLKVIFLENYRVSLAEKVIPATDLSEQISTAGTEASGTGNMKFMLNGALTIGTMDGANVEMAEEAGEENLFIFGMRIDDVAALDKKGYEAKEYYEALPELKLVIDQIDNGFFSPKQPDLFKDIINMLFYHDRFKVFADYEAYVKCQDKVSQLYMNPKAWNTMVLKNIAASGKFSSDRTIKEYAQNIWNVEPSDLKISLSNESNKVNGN

Rattus norvegicus [3] = species: Rattus norvegicus; assay: Free plasma concentration in rat; format: ADME, organism-based; conditions: in vivo
[4] = Volume of distribution in Wistar rat at […], iv and 11 to 12.2 umol/kg, po; format: ADME, organism-based; conditions: in vivo
CYP3A4 = CYP3A4 (Homo sapiens, UniProt P08684); assay: Inhibition of […] at 10 uM; format: ADME
Rattus norvegicus [5] = assay: as §1; format: ADME, organism-based; conditions: in vivo
Rattus norvegicus [6] = assay: Antihyperglycemic activity in Zucker fa/fa rat assessed as reduction in glucose level at 17 umol/kg dosed 45 mins prior to glucagon challenge measured after 90 mins; format: functional; parameters: scale not given: the % may be the effect or the level left
CYP2D6 = CYP2D6 (Homo sapiens, UniProt P10635); assay: Inhibition of CYP2D6 at 10 uM; format: ADME
[7] = Clearance in Wistar rat at […], iv and 11 to 12.2 umol/kg, po; format: ADME, organism-based; conditions: in vivo
CYP2C19 = CYP2C19 (Homo sapiens, UniProt P33261); assay: Inhibition of CYP2C19 at 10 uM; format: ADME
[8] = Half life in male Wistar rats at 4.3 - 4.9 umol/kg iv dose (11 - 12.2 umol/kg oral); format: ADME, organism-based; conditions: rat, in vivo
CYP2C9 = CYP2C9 (Homo sapiens, UniProt P11712); assay: Inhibition of CYP2C9 at 10 uM; format: ADME
[9] = Oral bioavailability in male Wistar rats at 11 - 12.2 umol/kg oral & 4.3 - 4.9 umol/kg iv dose; format: ADME, organism-based; conditions: rat, in vivo
CYP1A2 = target: T2, CYP1A2 (Homo sapiens, UniProt P05177); assay: Inhibition of CYP1A2 at 10 uM; format: ADME
T2 sequence (P05177 whole entry): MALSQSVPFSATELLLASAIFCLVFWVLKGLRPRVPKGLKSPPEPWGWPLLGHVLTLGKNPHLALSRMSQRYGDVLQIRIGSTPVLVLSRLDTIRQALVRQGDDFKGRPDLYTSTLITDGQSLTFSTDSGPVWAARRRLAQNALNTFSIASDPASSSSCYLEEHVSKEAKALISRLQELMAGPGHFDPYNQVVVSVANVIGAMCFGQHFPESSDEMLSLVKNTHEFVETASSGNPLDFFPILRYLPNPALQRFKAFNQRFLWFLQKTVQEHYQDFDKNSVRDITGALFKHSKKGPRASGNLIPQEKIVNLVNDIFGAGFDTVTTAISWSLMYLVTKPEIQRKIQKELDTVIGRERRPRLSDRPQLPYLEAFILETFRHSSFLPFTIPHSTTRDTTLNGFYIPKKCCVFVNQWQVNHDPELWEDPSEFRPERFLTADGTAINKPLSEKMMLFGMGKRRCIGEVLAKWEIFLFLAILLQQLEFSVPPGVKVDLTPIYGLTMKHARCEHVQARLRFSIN

[10] = target: Voltage-gated inwardly rectifying potassium channel KCNH2 (Homo sapiens, UniProt Q12809)
Voltage-gated inwardly rectifying potassium channel KCNH2, sequence (Q12809 whole entry): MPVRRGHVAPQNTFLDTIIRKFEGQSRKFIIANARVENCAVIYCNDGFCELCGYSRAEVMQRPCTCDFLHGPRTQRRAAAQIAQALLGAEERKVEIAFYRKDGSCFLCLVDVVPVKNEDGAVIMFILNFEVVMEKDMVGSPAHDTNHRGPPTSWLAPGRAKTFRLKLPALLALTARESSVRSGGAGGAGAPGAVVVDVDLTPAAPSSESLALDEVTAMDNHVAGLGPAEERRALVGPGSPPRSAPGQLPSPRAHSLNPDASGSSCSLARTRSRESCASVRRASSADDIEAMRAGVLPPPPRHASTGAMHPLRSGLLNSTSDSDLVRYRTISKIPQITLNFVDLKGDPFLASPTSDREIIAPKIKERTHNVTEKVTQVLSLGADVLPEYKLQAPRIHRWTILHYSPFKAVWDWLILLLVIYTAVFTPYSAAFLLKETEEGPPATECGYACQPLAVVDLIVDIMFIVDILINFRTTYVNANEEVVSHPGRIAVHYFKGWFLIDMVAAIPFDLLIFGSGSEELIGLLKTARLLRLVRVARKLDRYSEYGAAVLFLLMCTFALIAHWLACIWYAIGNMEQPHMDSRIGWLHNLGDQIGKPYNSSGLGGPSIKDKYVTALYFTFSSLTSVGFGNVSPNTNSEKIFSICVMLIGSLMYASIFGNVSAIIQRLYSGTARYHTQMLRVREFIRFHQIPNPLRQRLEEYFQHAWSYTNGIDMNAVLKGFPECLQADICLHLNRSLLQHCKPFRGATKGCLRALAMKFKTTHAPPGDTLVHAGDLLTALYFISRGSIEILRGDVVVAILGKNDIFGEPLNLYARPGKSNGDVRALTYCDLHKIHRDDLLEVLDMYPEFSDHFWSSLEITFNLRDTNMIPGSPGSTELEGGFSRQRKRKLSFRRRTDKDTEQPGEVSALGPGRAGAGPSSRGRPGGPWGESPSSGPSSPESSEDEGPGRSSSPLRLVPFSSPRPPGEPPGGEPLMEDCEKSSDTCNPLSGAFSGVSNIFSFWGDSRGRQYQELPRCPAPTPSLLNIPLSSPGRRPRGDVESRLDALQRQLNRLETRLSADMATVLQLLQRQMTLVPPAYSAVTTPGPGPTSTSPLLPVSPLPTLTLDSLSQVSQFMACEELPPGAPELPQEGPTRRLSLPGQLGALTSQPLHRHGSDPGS

CYP2C9, sequence (P11712 whole entry): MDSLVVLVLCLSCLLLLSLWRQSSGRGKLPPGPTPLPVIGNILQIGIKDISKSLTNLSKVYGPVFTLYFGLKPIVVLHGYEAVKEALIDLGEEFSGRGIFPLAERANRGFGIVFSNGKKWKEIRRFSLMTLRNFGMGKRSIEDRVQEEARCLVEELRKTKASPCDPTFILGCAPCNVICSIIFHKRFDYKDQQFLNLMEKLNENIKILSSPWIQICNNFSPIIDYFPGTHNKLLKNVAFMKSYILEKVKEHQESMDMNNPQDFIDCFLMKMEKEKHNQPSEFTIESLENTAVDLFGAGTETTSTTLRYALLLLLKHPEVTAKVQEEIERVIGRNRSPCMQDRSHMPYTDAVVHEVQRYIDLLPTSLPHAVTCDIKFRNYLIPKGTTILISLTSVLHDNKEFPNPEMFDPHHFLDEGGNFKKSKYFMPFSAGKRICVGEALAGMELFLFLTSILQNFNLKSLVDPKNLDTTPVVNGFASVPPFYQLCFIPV
CYP2C19, sequence (P33261 whole entry): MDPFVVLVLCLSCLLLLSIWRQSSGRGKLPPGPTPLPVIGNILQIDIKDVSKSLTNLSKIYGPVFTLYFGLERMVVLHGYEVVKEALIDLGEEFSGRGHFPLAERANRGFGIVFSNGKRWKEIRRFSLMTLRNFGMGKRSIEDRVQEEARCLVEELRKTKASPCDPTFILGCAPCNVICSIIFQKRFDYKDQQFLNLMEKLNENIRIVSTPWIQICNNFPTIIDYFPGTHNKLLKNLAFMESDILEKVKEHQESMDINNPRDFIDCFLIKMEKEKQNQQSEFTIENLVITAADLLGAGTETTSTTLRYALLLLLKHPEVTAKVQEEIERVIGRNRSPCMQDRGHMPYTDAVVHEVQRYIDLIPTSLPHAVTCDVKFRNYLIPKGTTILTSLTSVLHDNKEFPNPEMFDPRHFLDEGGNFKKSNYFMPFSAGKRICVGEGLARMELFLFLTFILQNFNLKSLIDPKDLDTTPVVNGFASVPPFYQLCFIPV
CYP3A4, sequence (P08684 whole entry): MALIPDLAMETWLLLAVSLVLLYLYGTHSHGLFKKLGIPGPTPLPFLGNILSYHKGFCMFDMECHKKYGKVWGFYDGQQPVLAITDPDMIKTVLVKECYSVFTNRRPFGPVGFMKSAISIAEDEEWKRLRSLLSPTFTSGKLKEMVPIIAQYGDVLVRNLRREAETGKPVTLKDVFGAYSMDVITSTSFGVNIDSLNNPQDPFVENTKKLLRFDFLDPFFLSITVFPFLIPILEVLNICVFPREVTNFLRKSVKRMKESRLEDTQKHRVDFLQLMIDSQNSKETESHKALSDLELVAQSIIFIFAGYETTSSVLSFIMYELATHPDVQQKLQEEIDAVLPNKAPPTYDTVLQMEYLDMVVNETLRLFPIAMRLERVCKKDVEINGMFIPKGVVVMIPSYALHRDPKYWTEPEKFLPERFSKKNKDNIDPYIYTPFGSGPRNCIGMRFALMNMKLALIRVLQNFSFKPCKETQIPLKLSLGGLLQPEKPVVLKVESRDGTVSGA
CYP2D6, sequence (P10635 whole entry): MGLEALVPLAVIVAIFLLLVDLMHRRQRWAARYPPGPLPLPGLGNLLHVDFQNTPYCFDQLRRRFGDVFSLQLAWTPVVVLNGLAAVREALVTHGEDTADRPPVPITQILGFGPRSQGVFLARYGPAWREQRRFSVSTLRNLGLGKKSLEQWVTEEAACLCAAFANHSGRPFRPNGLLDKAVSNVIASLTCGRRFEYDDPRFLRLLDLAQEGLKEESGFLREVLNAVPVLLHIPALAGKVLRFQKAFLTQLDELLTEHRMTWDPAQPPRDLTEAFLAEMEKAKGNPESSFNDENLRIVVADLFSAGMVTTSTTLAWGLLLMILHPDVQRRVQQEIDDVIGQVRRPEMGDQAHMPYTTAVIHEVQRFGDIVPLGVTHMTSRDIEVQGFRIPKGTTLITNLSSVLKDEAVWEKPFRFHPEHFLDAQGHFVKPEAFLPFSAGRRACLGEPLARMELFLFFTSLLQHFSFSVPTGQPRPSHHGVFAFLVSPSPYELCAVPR

Structure (SMILES) | bioavailability [1] [%] | IC50 [2] [µM] | other results
O=C(O)CSC[C@@H]1c2ccccc2C[C@H]1NC(=O)c1cc2sc(Cl)c(Cl)c2[nH]1 | 23 | 0.04 | –
O=C(O)C[C@@H]1c2ccccc2C[C@H]1NC(=O)c1cc2cc(F)ccc2[nH]1 | 88 | – | –
O=C(O)C[C@@H]1c2ccccc2C[C@H]1NC(=O)c1cc2cc(Cl)ncc2[nH]1 | 11 | 0.26 | fraction unbound (Rattus norvegicus [3]): 0.01%
O=C(O)C[C@H]1c2ccccc2C[C@@H]1NC(=O)c1cc2sc(Cl)c(Cl)c2[nH]1 | – | 1.5 | –
O=C(O)CCC[C@@H]1c2ccccc2C[C@H]1NC(=O)c1cc2sc(Cl)c(Cl)c2[nH]1 | 118 | 0.054 | –
COCC[C@H](C(=O)O)[C@@H]1c2ccccc2C[C@H]1NC(=O)c1cc2sc(Cl)c(Cl)c2[nH]1 [(S)-2-((1R,2R)-2-(2,3-DICHLORO-4H-THIENO[3,2-B]PYRROLE-5-CARBOXAMIDO)-2,3-DIHYDRO-1H-INDEN-1-YL)-4-METHOXYBUTANOIC ACID (DIASTEREOMERIC MIX)] | – | – | Vd [4]: 0.2 L/kg; inhibition at 10 µM (CYP3A4): < 50%; F (Rattus norvegicus [5]): 150% and 65%; Activity (Rattus norvegicus [6]): 50%; inhibition at 10 µM (CYP2D6): < 50%; clearance [7]: 0.4 mL/min/kg; inhibition at 10 µM (CYP2C19): < 50%; half-life [8]: 7 h; inhibition at 10 µM (CYP2C9): < 50%; bioavailability [9]: 118%; inhibition at 10 µM (CYP1A2): < 50%
O=C(O)C[C@H]1c2ccccc2C[C@@H]1NC(=O)c1cc2cc(Cl)sc2[nH]1 | – | 1.2 | –
O=C(O)CCCS(=O)(=O)C[C@@H]1c2ccccc2C[C@H]1NC(=O)c1cc2sc(Cl)c(Cl)c2[nH]1 | 2 | 0.042 | fraction unbound (Rattus norvegicus [3]): 0.3%
O=C(O)CC[C@@H]1c2ccccc2C[C@H]1NC(=O)c1cc2sc(Cl)c(Cl)c2[nH]1 | 80 | 0.056 | –
O=C(O)CO[C@@H]1c2ccccc2C[C@H]1NC(=O)c1cc2sc(Cl)c(Cl)c2[nH]1 | 5 | 0.03 | –

Further lines, with some results ahead:

bioavailability [1] [%] | IC50 [2] [µM] | Structure (SMILES) | other results
41 | 0.052 | O=C(O)C[C@@H]1c2ccccc2C[C@H]1NC(=O)c1cc2cc(Cl)cc(F)c2[nH]1 | –
77 | 0.057 | O=C(O)C[C@@H]1c2ccccc2C[C@H]1NC(=O)c1cc2cc(Cl)ccc2[nH]1 | –
65 | 0.076 | O=C(O)C[C@@H]1c2ccccc2C[C@H]1NC(=O)c1cc2cc(Cl)c(F)cc2[nH]1 | –
41 | 0.04 | O=C(O)C[C@@H]1c2ccccc2C[C@H]1NC(=O)c1cc2cc(Cl)sc2[nH]1 | –
55 | 0.059 | O=C(O)CCO[C@@H]1c2ccccc2C[C@H]1NC(=O)c1cc2sc(Cl)c(Cl)c2[nH]1 | –
2 | 0.056 | O=C(O)CC(=O)N[C@@H]1c2ccccc2C[C@H]1NC(=O)c1cc2sc(Cl)c(Cl)c2[nH]1 | –
65 | 0.018 | O=C(O)C[C@@H]1c2ccccc2C[C@H]1NC(=O)c1cc2sc(Cl)c(Cl)c2[nH]1 | IC50 [10]: > 30 µM; Vd [4]: 0.2 L/kg; inhibition at 10 µM (CYP3A4): < 50%; inhibition at 10 µM (CYP2D6): < 50%; clearance [7]: 0.23 mL/min/kg; inhibition at 10 µM (CYP2C19): < 50%; half-life [8]: 8 h; inhibition at 10 µM (CYP2C9): < 50%; bioavailability [9]: 65%; inhibition at 10 µM (CYP1A2): < 50%
